Data published in patent publication US20110178072A1, “STEREOSPECIFICITY OF METHYLSULFINYL REDUCTION” (priority 2008, published 2011).

System: ATF3
Test: Western blot analysis of ATF3 in SK-Hep1 cells grown on Met and Met sulfoxide media
Assay type: cell-based, human
Conditions: 72 hours, compared with cells on Met or Met-SO
Experimental: Analysis of SK-Hep1 and fRMsr-transfected SK-Hep1 cells—SK-Hep1 and fRMsr-transfected SK-Hep1 cells were plated in 6-well plates at 7.5×10^4 cells/well in regular DMEM medium. The medium was changed to Met-free DMEM supplemented with either Met or individual Met sulfoxides at 24 hours after plating. Cells were then collected every 24 hours until 96 hours. Protein concentration was measured by the Bradford assay and the samples were probed by standard immunoblot assays with polyclonal MsrA (kindly provided by Bertrand Friguet), cystathionine beta synthase (CBS) (kindly provided by Ruma Banerjee), and activating transcription factor 3 (ATF3) (Santa Cruz Biotechnology) antibodies.

Structure (SMILES): C[S@@+]([O-])CC[C@H](N)C(=O)O [Met-RO, methionine-R-sulfoxide]
- Expression levels of ATF3: low expression levels of ATF3
